{"source": "patent US10597388B2", "about": "“Pyridazinone herbicides” (FMC CORPORATION, priority 2014, dated 2020)", "format_in_all_cases": "in vivo", "key": {"[1]": {"tested_on": "barnyardgrass (Echinochloa crus-galli)", "assay": "Test A greenhouse herbicide test, pre- and postemergence", "in_short": "(§1)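 Visual injury ratings, 0 (no effect) to 100 (complete control), versus untreated plants after roughly 10 d in a greenhouse. Compounds, formulated in a surfactant-containing non-phytotoxic solvent, were sprayed on loam–sand soil after sowing (pre) or on one- to two-leaf plants 2–10 cm tall (post).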"}, "[2]": {"tested_on": "kochia (Kochia scoparia)", "assay": "Test A greenhouse herbicide test, pre- and postemergence", "in_short": "as §1"}, "[3]": {"tested_on": "corn (Zea mays)", "assay": "Test C greenhouse herbicide test, pre- and postemergence", "in_short": "(§2)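 Percent-control ratings (0 none, 100 complete) came from visual comparison with controls held alongside in the greenhouse for 13–15 d. Treatments covered soil application at sowing and foliar application to young plants 2–18 cm tall.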"}, "[4]": {"tested_on": "crabgrass, large (large crabgrass, Digitaria sanguinalis)", "assay": "Test C greenhouse herbicide test, pre- and postemergence", "in_short": "as §2"}, "[5]": {"tested_on": "foxtail, giant (giant foxtail, Setaria faberii)", "assay": "Test C greenhouse herbicide test, pre- and postemergence", "in_short": "as §2"}, "[6]": {"tested_on": "johnsongrass (Sorghum halepense)", "assay": "Test C greenhouse herbicide test, pre- and postemergence", "in_short": "as §2"}, "[7]": {"tested_on": "lambsquarters (Chenopodium album)", "assay": "Test C greenhouse herbicide test, pre- and postemergence", "in_short": "as §2"}, "[8]": {"tested_on": "morningglory (Ipomoea coccinea)", "assay": "Test C greenhouse herbicide test, pre- and postemergence", "in_short": "as §2"}, "[9]": {"tested_on": "oilseed rape (Brassica napus)", "assay": "Test C greenhouse herbicide test, pre- and postemergence", "in_short": "as §2"}, "[10]": {"tested_on": "waterhemp (common waterhemp, Amaranthus rudis)", "assay": "Test C greenhouse herbicide test, pre- and postemergence", "in_short": "as §2"}, "[11]": {"tested_on": "wheat (winter wheat, Triticum aestivum)", "assay": "Test C greenhouse herbicide test, pre- and postemergence", "in_short": "as §2"}, "[12]": {"conditions": "Postemergence, 125 g ai/ha, 0 to 100 scale where 0 is no effect and 100 is complete control"}, "[13]": {"conditions": "Postemergence, 500 g ai/ha, 0 to 100 scale, 0 is no effect, 100 is complete control"}, "[14]": {"conditions": "Preemergence, 125 g ai/ha, 0 to 100 scale where 0 is no effect and 100 is complete control"}, "[15]": {"conditions": "Postemergence, 31 g ai/ha, 0 to 100 scale (0 no effect, 100 complete control)"}, "[16]": {"conditions": "Postemergence, 125 g ai/ha, scale 0 to 100, 0 is no effect, 100 is complete control"}, "[17]": {"conditions": "Postemergence, 250 g ai/ha, scale 0 to 100, 0 no effect, 100 complete control, 13 to 15 d"}, "[18]": {"conditions": "Preemergence, 31 g ai/ha, scale 0 to 100, 0 is no effect, 100 is complete control"}, "[19]": {"conditions": "Preemergence, 62 g ai/ha, scale 0 to 100, 0 is no effect, 100 is complete control"}, "[20]": {"conditions": "Preemergence, 125 g ai/ha, scale 0 to 100, 0 is no effect, 100 is complete control"}, "[21]": {"conditions": "Preemergence, 250 g ai/ha, scale 0 to 100, 0 no effect, 100 complete control"}, "[22]": {"conditions": "postemergence, 62 g ai/ha, scale 0 to 100, 0 no effect, 100 complete control"}}}
{"molecule": "COC(=O)Oc1c(C)nn(C)c(=O)c1-c1c(C)sc2ccc(C)cc12", "note": "[Compound 80]", "values": [{"measurement": "Plant response rating, Barnyardgrass", "setting": "[1]; [12]", "value": 70}, {"measurement": "Barnyardgrass plant response rating", "setting": "[1]; [13]", "value": 80}, {"measurement": "Barnyardgrass plant response rating", "setting": "[1]; [14]", "value": 70}, {"measurement": "Plant response rating, Barnyardgrass", "setting": "[1]; Preemergence, 500 g ai/ha, 0 to 100 scale, 0 no effect, 100 complete control", "value": 90}, {"measurement": "Plant response rating, Kochia", "setting": "[2]; [12]", "value": 90}, {"measurement": "Kochia plant response rating", "setting": "[2]; [13]", "value": 90}, {"measurement": "Kochia plant response rating", "setting": "[2]; [14]", "value": 90}, {"measurement": "Plant response rating, Kochia", "setting": "[2]; Preemergence, 500 g ai/ha, 0 to 100 scale where 0 is no effect and 100 is complete control", "value": 90}, {"measurement": "Corn plant response rating", "setting": "[3]; [15]", "value": 0}, {"measurement": "Plant response rating, Corn", "setting": "[3]; [16]", "value": 5}, {"measurement": "Plant response rating, Corn", "setting": "[3]; [17]", "value": 5}, {"measurement": "Plant response rating, Corn", "setting": "[3]; [18]", "value": 0}, {"measurement": "Plant response rating, Corn", "setting": "[3]; [19]", "value": 10}, {"measurement": "Plant response rating, Corn", "setting": "[3]; [20]", "value": 10}, {"measurement": "Corn plant response rating", "setting": "[3]; [21]", "value": 25}, {"measurement": "Corn plant response rating", "setting": "[3]; [22]", "value": 5}, {"measurement": "Crabgrass, Large plant response rating", "setting": "[4]; [15]", "value": 10}, {"measurement": "Plant response rating, Crabgrass, Large", "setting": "[4]; [16]", "value": 30}, {"measurement": "Plant response rating, Crabgrass, Large", "setting": "[4]; [17]", "value": 35}, {"measurement": "Plant response rating, Crabgrass, Large", "setting": "[4]; [18]", "value": 10}, {"measurement": "Plant response rating, Crabgrass, Large", "setting": "[4]; [19]", "value": 15}, {"measurement": "Plant response rating, Crabgrass, Large", "setting": "[4]; [20]", "value": 40}, {"measurement": "Crabgrass, Large plant response rating", "setting": "[4]; [21]", "value": 75}, {"measurement": "Crabgrass, Large plant response rating", "setting": "[4]; [22]", "value": 25}, {"measurement": "Foxtail, Giant plant response rating", "setting": "[5]; [15]", "value": 25}, {"measurement": "Plant response rating, Foxtail, Giant", "setting": "[5]; [16]", "value": 70}, {"measurement": "Plant response rating, Foxtail, Giant", "setting": "[5]; [17]", "value": 90}, {"measurement": "Plant response rating, Foxtail, Giant", "setting": "[5]; [18]", "value": 70}, {"measurement": "Plant response rating, Foxtail, Giant", "setting": "[5]; [19]", "value": 85}, {"measurement": "Plant response rating, Foxtail, Giant", "setting": "[5]; [20]", "value": 85}, {"measurement": "Foxtail, Giant plant response rating", "setting": "[5]; [21]", "value": 98}, {"measurement": "Foxtail, Giant plant response rating", "setting": "[5]; [22]", "value": 55}, {"measurement": "Johnsongrass plant response rating", "setting": "[6]; [15]", "value": 5}, {"measurement": "Plant response rating, Johnsongrass", "setting": "[6]; [16]", "value": 5}, {"measurement": "Plant response rating, Johnsongrass", "setting": "[6]; [17]", "value": 15}, {"measurement": "Plant response rating, Johnsongrass", "setting": "[6]; [18]", "value": 5}, {"measurement": "Plant response rating, Johnsongrass", "setting": "[6]; [19]", "value": 5}, {"measurement": "Plant response rating, Johnsongrass", "setting": "[6]; [20]", "value": 30}, {"measurement": "Johnsongrass plant response rating", "setting": "[6]; [21]", "value": 35}, {"measurement": "Johnsongrass plant response rating", "setting": "[6]; [22]", "value": 5}, {"measurement": "Lambsquarters plant response rating", "setting": "[7]; [15]", "value": 95}, {"measurement": "Plant response rating, Lambsquarters", "setting": "[7]; [16]", "value": 98}, {"measurement": "Plant response rating, Lambsquarters", "setting": "[7]; [17]", "value": 100}, {"measurement": "Plant response rating, Lambsquarters", "setting": "[7]; [18]", "value": 90}, {"measurement": "Plant response rating, Lambsquarters", "setting": "[7]; [19]", "value": 90}, {"measurement": "Plant response rating, Lambsquarters", "setting": "[7]; [20]", "value": 90}, {"measurement": "Lambsquarters plant response rating", "setting": "[7]; [21]", "value": 98}, {"measurement": "Lambsquarters plant response rating", "setting": "[7]; [22]", "value": 95}, {"measurement": "Morningglory plant response rating", "setting": "[8]; [15]", "value": 100}, {"measurement": "Plant response rating, Morningglory", "setting": "[8]; [16]", "value": 100}, {"measurement": "Plant response rating, Morningglory", "setting": "[8]; [17]", "value": 98}, {"measurement": "Plant response rating, Morningglory", "setting": "[8]; [18]", "value": 85}, {"measurement": "Plant response rating, Morningglory", "setting": "[8]; [19]", "value": 90}, {"measurement": "Plant response rating, Morningglory", "setting": "[8]; [20]", "value": 90}, {"measurement": "Morningglory plant response rating", "setting": "[8]; [21]", "value": 98}, {"measurement": "Morningglory plant response rating", "setting": "[8]; [22]", "value": 100}, {"measurement": "Oilseed Rape plant response rating", "setting": "[9]; [15]", "value": 5}, {"measurement": "Plant response rating, Oilseed Rape", "setting": "[9]; [16]", "value": 60}, {"measurement": "Plant response rating, Oilseed Rape", "setting": "[9]; [17]", "value": 80}, {"measurement": "Plant response rating, Oilseed Rape", "setting": "[9]; [18]", "value": 0}, {"measurement": "Plant response rating, Oilseed Rape", "setting": "[9]; [19]", "value": 30}, {"measurement": "Plant response rating, Oilseed Rape", "setting": "[9]; [20]", "value": 50}, {"measurement": "Oilseed Rape plant response rating", "setting": "[9]; [21]", "value": 0}, {"measurement": "Oilseed Rape plant response rating", "setting": "[9]; [22]", "value": 50}, {"measurement": "Waterhemp plant response rating", "setting": "[10]; [15]", "value": 85}, {"measurement": "Plant response rating, Waterhemp", "setting": "[10]; [16]", "value": 85}, {"measurement": "Plant response rating, Waterhemp", "setting": "[10]; [17]", "value": 95}, {"measurement": "Plant response rating, Waterhemp", "setting": "[10]; [18]", "value": 100}, {"measurement": "Plant response rating, Waterhemp", "setting": "[10]; [19]", "value": 100}, {"measurement": "Plant response rating, Waterhemp", "setting": "[10]; [20]", "value": 100}, {"measurement": "Waterhemp plant response rating", "setting": "[10]; [21]", "value": 100}, {"measurement": "Waterhemp plant response rating", "setting": "[10]; [22]", "value": 80}, {"measurement": "Wheat plant response rating", "setting": "[11]; [15]", "value": 0}, {"measurement": "Plant response rating, Wheat", "setting": "[11]; [16]", "value": 10}, {"measurement": "Plant response rating, Wheat", "setting": "[11]; [17]", "value": 15}, {"measurement": "Plant response rating, Wheat", "setting": "[11]; [18]", "value": 0}, {"measurement": "Plant response rating, Wheat", "setting": "[11]; [19]", "value": 0}, {"measurement": "Plant response rating, Wheat", "setting": "[11]; [20]", "value": 0}, {"measurement": "Wheat plant response rating", "setting": "[11]; [21]", "value": 0}, {"measurement": "Wheat plant response rating", "setting": "[11]; [22]", "value": 5}]}
